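Test compounds were applied to cells in 96-well plates for 48 hours at 5 doses. TGI denotes the concentration required for complete inhibition of growth.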
Legend:
Test in all cases: DTP human tumour cell line panel, 48 h
[1] = tested on: A549 NSCLC
[2] = tested on: HL-60(TB) leukemia
[3] = tested on: SK-MEL-5 melanoma
[4] = tested on: 786-0 renal
[5] = tested on: TK-10 renal
[6] = tested on: A498 renal
[7] = tested on: CAKI-1 renal
[8] = tested on: RPMI-8226 leukemia
[9] = tested on: OVCAR-3 ovarian
[10] = tested on: BT-549 breast
[11] = tested on: MCF7 breast
[12] = tested on: NCI/ADR-RES ovarian
[13] = tested on: SW-620 colon
[14] = tested on: MOLT-4 leukemia
[15] = tested on: OVCAR-5 ovarian
[16] = tested on: HCC-2998 colon
[17] = tested on: MDA-MB-231 breast
[18] = tested on: OVCAR-8 ovarian
[19] = tested on: UACC-257 melanoma
[20] = tested on: MALME-3M melanoma
[21] = tested on: SF-539 CNS
[22] = tested on: SR leukemia
[23] = tested on: LOX IMVI melanoma
[24] = tested on: SNB-19 CNS
[25] = tested on: MDA-N
[26] = tested on: T-47D breast
[27] = tested on: SNB-75 CNS
[28] = tested on: PC-3 prostate
[29] = tested on: UACC-62 melanoma
[30] = tested on: HS 578T breast
[31] = tested on: SF-268 CNS
[32] = tested on: EKVX NSCLC
[33] = tested on: SK-MEL-28 melanoma
[34] = tested on: MDA-MB-435
[35] = tested on: CCRF-CEM leukemia
[36] = tested on: KM12 colon
[37] = tested on: DU-145 prostate
[38] = tested on: RXF 393 renal
[39] = tested on: IGROV1 ovarian
[40] = tested on: SF-295 CNS
[41] = tested on: NCI-H522 lung
[42] = tested on: U251 CNS
[43] = tested on: HCT-116 colon
[44] = tested on: HCT-15 colon
[45] = tested on: NCI-H460 lung
[46] = tested on: ACHN renal
[47] = tested on: COLO 205 colon
[48] = tested on: HT29 colon
[49] = tested on: UO-31 renal
[50] = tested on: SN12C renal
[51] = tested on: M14 melanoma
[52] = tested on: SK-OV-3 ovarian
[53] = tested on: SK-MEL-2 melanoma
[54] = tested on: OVCAR-4 ovarian
[55] = tested on: K-562 leukemia
[56] = tested on: NCI-H226 lung
[57] = tested on: HOP-92 NSCLC
[58] = tested on: NCI-H23 lung
[59] = tested on: HOP-62 NSCLC
[60] = tested on: LXFL 529 NSCLC
[61] = tested on: DMS 114 small cell lung
[62] = tested on: KM20L2 colon
[63] = tested on: DMS 273 small cell lung

Compound: CNCCCNC1(c2cc3ccccc3s2)CCCCC1
- TGI [1]: 20.4 µM
- TGI [2]: 18.9 µM
- TGI [3]: 5.68 µM
- TGI [4]: 9.87 µM
- TGI [5]: 19.4 µM
- TGI [6]: 14.1 µM
- TGI [7]: 22.1 µM
- TGI [8]: 6.18 µM
- TGI [9]: 25.4 µM
- TGI [10]: 29.8 µM
- TGI [11]: 15.5 µM
- TGI [12]: 29.9 µM
- TGI [13]: 26.3 µM
- TGI [14]: 7.48 µM
- TGI [15]: 27.5 µM
- TGI [16]: 2.61 µM
- TGI [17]: 12.6 µM
- TGI [18]: 28.4 µM
- TGI [19]: 3.35 µM
- TGI [20]: 4.57 µM
- TGI [21]: 7.37 µM
- TGI [22]: 3.44 µM
- TGI [23]: 9.94 µM
- TGI [24]: 24.8 µM
- TGI [25]: 5.85 µM
- TGI [26]: 11.9 µM
- TGI [27]: 19.5 µM
- TGI [28]: 21.5 µM
- TGI [29]: 3.87 µM
- TGI [30]: 29.1 µM
- TGI [31]: 25.3 µM
- TGI [32]: 26.4 µM
- TGI [33]: 3.91 µM
- TGI [34]: 5.86 µM
- TGI [35]: 4.51 µM
- TGI [36]: 16.3 µM
- TGI [37]: 24.2 µM
- TGI [38]: 12.2 µM
- TGI [39]: 25.5 µM
- TGI [40]: 27.5 µM
- TGI [41]: 19.1 µM
- TGI [42]: 16.4 µM
- TGI [43]: 14.9 µM
- TGI [44]: 21.7 µM
- TGI [45]: 9.09 µM
- TGI [46]: 26.9 µM
- TGI [47]: 3.8 µM
- TGI [48]: 7.94 µM
- TGI [49]: 7.36 µM
- TGI [50]: 18.4 µM
- TGI [51]: 8.06 µM
- TGI [52]: 29.1 µM
- TGI [53]: 10.9 µM
- TGI [54]: 27 µM
- TGI [55]: 4.11 µM
- TGI [56]: 36.6 µM
- TGI [57]: 14.8 µM
- TGI [58]: 30.6 µM
- TGI [59]: 22.4 µM

Compound: CCC1CC(C)=CCN1S(=O)(=O)c1ccc(C)cc1 (stereo unspecified)
- TGI [1]: > 100 µM
- TGI [2]: 18 µM
- TGI [3]: 26.8 µM
- TGI [4]: > 100 µM
- TGI [6]: > 100 µM
- TGI [7]: > 100 µM
- TGI [8]: 20.5 µM
- TGI [60]: > 100 µM
- TGI [9]: 44.9 µM
- TGI [14]: 83.6 µM
- TGI [15]: > 100 µM
- TGI [61]: 53.7 µM
- TGI [18]: > 100 µM
- TGI [19]: > 100 µM
- TGI [20]: 61.7 µM
- TGI [21]: 39.8 µM
- TGI [22]: 32.7 µM
- TGI [23]: 33.6 µM
- TGI [24]: > 100 µM
- TGI [27]: 50.6 µM
- TGI [29]: 57.8 µM
- TGI [31]: 62.1 µM
- TGI [32]: > 100 µM
- TGI [35]: 75.7 µM
- TGI [36]: 70.8 µM
- TGI [40]: > 100 µM
- TGI [41]: 46.4 µM
- TGI [43]: > 100 µM
- TGI [62]: 36 µM
- TGI [44]: 83.7 µM
- TGI [45]: 91.7 µM
- TGI [46]: > 100 µM
- TGI [47]: 38.4 µM
- TGI [48]: 39.3 µM
- TGI [49]: 66.6 µM
- TGI [50]: 24.3 µM
- TGI [51]: 57.5 µM
- TGI [52]: > 100 µM
- TGI [53]: 27.2 µM
- TGI [54]: > 100 µM
- TGI [55]: > 100 µM
- TGI [56]: 80.7 µM
- TGI [59]: 84.6 µM
- TGI [63]: 67.9 µM

Compound: CCOC(=O)N1CCN(c2nc(C)n(-c3ccccc3)c(=S)c2C#N)CC1
- TGI [1]: > 100 µM
- TGI [2]: > 66.7 µM
- TGI [3]: > 100 µM
- TGI [4]: > 100 µM
- TGI [5]: > 100 µM
- TGI [6]: > 100 µM
- TGI [7]: > 100 µM
- TGI [8]: > 100 µM
- TGI [9]: > 100 µM
- TGI [10]: > 100 µM
- TGI [11]: > 100 µM
- TGI [12]: > 100 µM
- TGI [13]: > 100 µM
- TGI [14]: > 100 µM
- TGI [15]: > 100 µM
- TGI [16]: > 100 µM
- TGI [17]: > 84.3 µM
- TGI [18]: > 100 µM
- TGI [19]: > 100 µM
- TGI [20]: > 100 µM
- TGI [21]: > 100 µM
- TGI [22]: > 100 µM
- TGI [23]: > 100 µM
- TGI [24]: > 100 µM
- TGI [25]: > 72.2 µM
- TGI [26]: > 100 µM
- TGI [27]: > 79.7 µM
- TGI [28]: > 100 µM
- TGI [29]: > 100 µM
- TGI [30]: > 100 µM
- TGI [31]: > 100 µM
- TGI [32]: > 100 µM
- TGI [33]: > 100 µM
- TGI [34]: > 100 µM
- TGI [35]: > 62.6 µM
- TGI [36]: > 100 µM
- TGI [37]: > 100 µM
- TGI [38]: > 100 µM
- TGI [39]: > 63.4 µM
- TGI [40]: > 100 µM
- TGI [41]: > 66.3 µM
- TGI [42]: > 100 µM
- TGI [43]: > 100 µM
- TGI [44]: > 100 µM
- TGI [45]: > 100 µM
- TGI [46]: > 100 µM
- TGI [47]: > 100 µM
- TGI [48]: > 100 µM
- TGI [49]: > 100 µM
- TGI [50]: > 100 µM
- TGI [51]: > 100 µM
- TGI [52]: > 100 µM
- TGI [53]: > 100 µM
- TGI [54]: > 100 µM
- TGI [55]: > 100 µM
- TGI [56]: > 100 µM
- TGI [57]: > 100 µM
- TGI [58]: > 100 µM
- TGI [59]: > 100 µM

Compound: COC(=O)C1(Cc2cccc(C)c2)Cc2c(C)cccc2C1=O (stereo unspecified)
- TGI [1]: > 100 µM
- TGI [2]: > 100 µM
- TGI [3]: > 100 µM
- TGI [4]: > 100 µM
- TGI [5]: > 100 µM
- TGI [6]: > 100 µM
- TGI [7]: > 100 µM
- TGI [8]: > 100 µM
- TGI [9]: > 100 µM
- TGI [10]: > 100 µM
- TGI [11]: 90.8 µM
- TGI [12]: 72.2 µM
- TGI [13]: > 100 µM
- TGI [14]: > 100 µM
- TGI [15]: > 100 µM
- TGI [16]: > 100 µM
- TGI [17]: > 100 µM
- TGI [18]: > 100 µM
- TGI [19]: > 100 µM
- TGI [20]: > 100 µM
- TGI [21]: > 100 µM
- TGI [22]: > 100 µM
- TGI [23]: > 100 µM
- TGI [24]: > 100 µM
- TGI [25]: 34.5 µM
- TGI [26]: > 100 µM
- TGI [27]: > 100 µM
- TGI [28]: > 100 µM
- TGI [29]: > 100 µM
- TGI [30]: > 100 µM
- TGI [31]: > 100 µM
- TGI [32]: > 100 µM
- TGI [33]: > 100 µM
- TGI [34]: 41.3 µM
- TGI [35]: > 100 µM
- TGI [36]: > 100 µM
- TGI [37]: > 100 µM
- TGI [38]: > 100 µM
- TGI [39]: > 100 µM
- TGI [40]: > 100 µM
- TGI [41]: 73.3 µM
- TGI [42]: > 100 µM
- TGI [43]: > 100 µM
- TGI [44]: > 100 µM
- TGI [45]: > 100 µM
- TGI [46]: > 100 µM
- TGI [47]: > 100 µM
- TGI [48]: 89.7 µM
- TGI [49]: > 100 µM
- TGI [50]: > 100 µM
- TGI [51]: > 100 µM
- TGI [52]: > 100 µM
- TGI [53]: > 100 µM
- TGI [54]: > 100 µM
- TGI [55]: > 100 µM
- TGI [56]: > 100 µM
- TGI [57]: > 100 µM
- TGI [58]: > 100 µM
- TGI [59]: > 100 µM

Reference: PubChem BioAssay (NCI)
